Laboratory results published in the supplement of paper PMC11061612.

Experiments:
Test in all cases: Bliss excess, mean over the matrix (fraction); higher = more synergy
ES1 (Ewing's Sarcoma) = tested on: ES1 (Ewing's Sarcoma)
Summary of the method: (§1)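 After 24 hours at 37°C and 5% CO2 in 1536-well plates, cells in DMEM/F12 or RPMI plus 10% FBS received two-drug dose matrices for 72 hours. Viability came from CellTiter-Glo 2.0 luminescence and was scaled as inhibition, anchored at 0 by vehicle wells and at 1 by blank wells. Combination Emax is taken as the second-highest inhibition in the matrix, and Bliss excess as the observed combination effect less EA + EB − EA·EB, with EA and EB the single-agent effects.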

[1] = tested on: MOLT-16 (T-Lymphoblastic Leukemia)
Summary of the method: as §1

WIL2-NS (Non-Cancerous) = tested on: WIL2-NS (Non-Cancerous)
Summary of the method: as §1

LN-18 (Glioblastoma) = tested on: LN-18 (Glioblastoma)
Summary of the method: as §1

[2] = tested on: GR-ST (B-Lymphoblastic Leukemia)
Summary of the method: as §1

[3] = tested on: K-562 (Chronic Myelogenous Leukemia)
Summary of the method: as §1

NCI-H2818 (Mesothelioma) = tested on: NCI-H2818 (Mesothelioma)
Summary of the method: as §1

[4] = tested on: DND-41 (T-Lymphoblastic Leukemia)
Summary of the method: as §1

ES8 (Ewing's Sarcoma) = tested on: ES8 (Ewing's Sarcoma)
Summary of the method: as §1

[5] = tested on: SW1417 (Colorectal Carcinoma)
Summary of the method: as §1

[6] = tested on: SU-DHL-8 (B-Cell Non-Hodgkin's Lymphoma)
Summary of the method: as §1

[7] = tested on: PANC-08-13 (Pancreatic Carcinoma)
Summary of the method: as §1

[8] = tested on: MS751 (Cervical Carcinoma)
Summary of the method: as §1

[9] = tested on: BFTC-905 (Bladder Carcinoma)
Summary of the method: as §1

[10] = tested on: KCL-22 (Chronic Myelogenous Leukemia)
Summary of the method: as §1

[11] = tested on: SR (Other Blood Carcinomas)
Summary of the method: as §1

[12] = tested on: HL-60 (Acute Myeloid Leukemia)
Summary of the method: as §1

[13] = tested on: BL-41 (Burkitt's Lymphoma)
Summary of the method: as §1

[14] = tested on: KARPAS-45 (T-Lymphoblastic Leukemia)
Summary of the method: as §1

| SMILES | Bliss excess (ES1 (Ewing's Sarcoma)) | Bliss excess [1] | Bliss excess (WIL2-NS (Non-Cancerous)) | Bliss excess (LN-18 (Glioblastoma)) | Bliss excess [2] | Bliss excess [3] | Bliss excess (NCI-H2818 (Mesothelioma)) | Bliss excess [4] | Bliss excess (ES8 (Ewing's Sarcoma)) | Bliss excess [5] | Bliss excess [6] | Bliss excess [7] | Bliss excess [8] | Bliss excess [9] | Bliss excess [10] | Bliss excess [11] | Bliss excess [12] | Bliss excess [13] | Bliss excess [14] |
| --- | --- | --- | --- | --- | --- | --- | --- | --- | --- | --- | --- | --- | --- | --- | --- | --- | --- | --- | --- |
| COc1cccc(OCCCN)c1-c1cc(Nc2cnc(C#N)cn2)n[nH]1 [Prexasertib] + O=C(c1cc(Cc2n[nH]c(=O)c3ccccc23)ccc1F)N1CCN(C(=O)C2CC2)CC1 [Olaparib] (first compound max 1 µM, 7x7, partner max 10 µM) | -0.0161 | -0.0198 | -0.0174 | -0.0368 | -0.111 | -0.105 | -0.0136 | -0.101 | -0.066 | -0.0459 | -0.0668 | -0.076 | 0.034 | -0.0751 | -0.0599 | 0.0119 | -0.0781 | -0.0346 | -0.0081 |
| CN(C)CCCOc1ccc(-c2ccc3ncc4c(c3c2)n(C2CCOCC2)c(=O)n4C)cn1 [AZD0156] + CCN(CCO)CCCOc1ccc2c(Nc3cc(CC(=O)Nc4cccc(F)c4)[nH]n3)ncnc2c1 [AZD2811] (first compound max 1 µM, 7x7, partner max 1 µM) | 0.148 | -0.0087 | -0.003 | 0.0009 | 0.0033 | -0.0011 | -0.0491 | 0.0072 | -0.0153 | -0.0418 | 0.0377 | -0.0461 | -0.0235 | 0.0116 | 0.0703 | -0.0666 | -0.0762 | 0.0177 | -0.0515 |
| CCc1c2c(nc3ccc(O)cc13)-c1cc3c(c(=O)n1C2)COC(=O)[C@]3(O)CC [SN-38] + CN(C)CCCOc1ccc(-c2ccc3ncc4c(c3c2)n(C2CCOCC2)c(=O)n4C)cn1 [AZD0156] (first compound max 0.3 µM, 7x7, partner max 1 µM) | 0.0784 | 0.0538 | 0.08 | 0.0759 | -0.0319 | 0.0331 | 0.015 | -0.0584 | 0.0458 | -0.033 | -0.059 | -0.0316 | 0.0355 | 0.0608 | 0.0872 | 0.0878 | 0.115 | 0.0556 | -0.0082 |
| COc1cccc(OCCCN)c1-c1cc(Nc2cnc(C#N)cn2)n[nH]1 [Prexasertib] + Cc1cc2ncnn2cc1Nc1ncc2c(n1)n(C1CCOCC1)c(=O)n2C [AZD7648] (first compound max 1 µM, 7x7, partner max 10 µM) | 0.0088 | 0.0121 | -0.0285 | -0.0198 | -0.0363 | -0.0282 | -0.032 | -0.0979 | -0.0489 | 0.001 | -0.0221 | -0.0089 | -0.0156 | -0.0492 | -0.0133 | 0.0003 | 0.0133 | -0.0265 | -0.0044 |
| CN(C)CCCOc1ccc(-c2ccc3ncc4c(c3c2)n(C2CCOCC2)c(=O)n4C)cn1 [AZD0156] + C=CCn1c(=O)c2cnc(Nc3ccc(N4CCN(C)CC4)cc3)nc2n1-c1cccc(C(C)(C)O)n1 [AZD1775] (first compound max 1 µM, partner max 1 µM) | -0.0018 | -0.0108 | 0.0135 | -0.0307 | -0.0229 | -0.0269 | -0.0556 | -0.0029 | -0.0464 | -0.0213 | 0.0032 | -0.0586 | -0.0154 | -0.0022 | -0.0326 | -0.0509 | -0.0177 | 0.0047 | -0.0182 |
| Cc1cc2ncnn2cc1Nc1ncc2c(n1)n(C1CCOCC1)c(=O)n2C [AZD7648] + CCN(CCO)CCCOc1ccc2c(Nc3cc(CC(=O)Nc4cccc(F)c4)[nH]n3)ncnc2c1 [AZD2811] (first compound max 10 µM, 7x7, partner max 1 µM) | 0.0855 | 0.0058 | 0.0024 | 0.0208 | -0.0705 | 0.0127 | 0.0283 | 0.0308 | -0.011 | -0.106 | 0.038 | 0.0006 | -0.0094 | 0.0469 | 0.115 | -0.0225 | -0.0639 | 0.0668 | -0.0341 |
| COc1cc2c(cc1OCCCCCOc1cc3c(cc1OC)C(=O)N1C=C(C)C[C@H]1C=N3)N=C[C@@H]1CC(C)=CN1C2=O [SG3199] + O=C(c1cc(Cc2n[nH]c(=O)c3ccccc23)ccc1F)N1CCN(C(=O)C2CC2)CC1 [Olaparib] (first compound max 0.001 µM, 7x7, partner max 10 µM) | 0.0027 | 0.0336 | -0.0239 | -0.0119 | -0.0339 | -0.0041 | -0.0642 | -0.0067 | -0.0206 | -0.0472 | 0.0547 | -0.0319 | -0.075 | -0.054 | -0.0049 | 0.0238 | -0.034 | -0.0163 | -0.0076 |
| Cc1cc2ncnn2cc1Nc1ncc2c(n1)n(C1CCOCC1)c(=O)n2C [AZD7648] + C[C@@H]1COCCN1C2=NC(=NC(=C2)C3(CC3)[S@](=N)(=O)C)C4=C5C=CNC5=NC=C4 [AZD6738] (first compound max 10 µM, 7x7, partner max 10 µM) | -0.0001 | -0.0368 | 0.0015 | -0.0084 | -0.116 | -0.0096 | 0.0738 | -0.01 | 0.0071 | 0.0175 | -0.0136 | 0.0227 | 0.0606 | 0.0081 | 0.0341 | 0.0148 | -0.0079 | -0.0052 | 0.0129 |
| COc1cccc(OCCCN)c1-c1cc(Nc2cnc(C#N)cn2)n[nH]1 [Prexasertib] + C=CCn1c(=O)c2cnc(Nc3ccc(N4CCN(C)CC4)cc3)nc2n1-c1cccc(C(C)(C)O)n1 [AZD1775] (first compound max 1 µM, partner max 1 µM) | 0.0948 | 0.0716 | 0.0513 | 0.042 | -0.0448 | 0.0497 | -0.0212 | -0.0247 | 0.0633 | 0.0443 | -0.0202 | -0.0174 | 0.0653 | 0.147 | 0.088 | -0.014 | 0.0981 | 0.0467 | 0.0553 |
| Cc1cc2ncnn2cc1Nc1ncc2c(n1)n(C1CCOCC1)c(=O)n2C [AZD7648] + O=C(c1cc(Cc2n[nH]c(=O)c3ccccc23)ccc1F)N1CCN(C(=O)C2CC2)CC1 [Olaparib] (first compound max 10 µM, 7x7, partner max 10 µM) | -0.0604 | -0.019 | -0.0669 | -0.0351 | -0.0706 | 0.0107 | -0.0776 | 0.0069 | -0.0626 | -0.0597 | 0.0195 | -0.0538 | 0.0017 | -0.0299 | -0.0367 | 0.0433 | -0.0151 | -0.0368 | 0.0031 |
| COc1cccc(OCCCN)c1-c1cc(Nc2cnc(C#N)cn2)n[nH]1 [Prexasertib] + C[C@@H]1COCCN1C2=NC(=NC(=C2)C3(CC3)[S@](=N)(=O)C)C4=C5C=CNC5=NC=C4 [AZD6738] (first compound max 1 µM, 7x7, partner max 10 µM) | -0.0142 | 0.0291 | -0.0021 | 0.0188 | -0.0845 | -0.0435 | -0.0168 | -0.0651 | -0.0371 | 0.0572 | -0.0214 | -0.0421 | 0.0539 | 0.0096 | -0.0302 | -0.0164 | -0.0289 | -0.0066 | -0.0117 |
| CCc1c2c(nc3ccc(O)cc13)-c1cc3c(c(=O)n1C2)COC(=O)[C@]3(O)CC [SN-38] + O=C(c1cc(Cc2n[nH]c(=O)c3ccccc23)ccc1F)N1CCN(C(=O)C2CC2)CC1 [Olaparib] (first compound max 0.3 µM, 7x7, partner max 10 µM) | 0.0779 | – | 0.0736 | – | -0.05 | 0.0222 | 0.0548 | 0.0343 | 0.0636 | 0.0174 | – | -0.0202 | 0.053 | 0.0451 | 0.0525 | 0.0614 | – | 0.0462 | – |
| COc1cccc(OCCCN)c1-c1cc(Nc2cnc(C#N)cn2)n[nH]1 [Prexasertib] + CN(C)CCCOc1ccc(-c2ccc3ncc4c(c3c2)n(C2CCOCC2)c(=O)n4C)cn1 [AZD0156] (first compound max 1 µM, 7x7, partner max 1 µM) | 0.0127 | 0.05 | -0.0281 | 0.0304 | -0.0287 | -0.0217 | -0.0871 | -0.101 | -0.011 | -0.0473 | -0.0553 | -0.027 | 0.02 | 0.0125 | -0.0021 | -0.0266 | -0.0026 | -0.0134 | -0.0485 |
| CCN(CCO)CCCOc1ccc2c(Nc3cc(CC(=O)Nc4cccc(F)c4)[nH]n3)ncnc2c1 [AZD2811] + C=CCn1c(=O)c2cnc(Nc3ccc(N4CCN(C)CC4)cc3)nc2n1-c1cccc(C(C)(C)O)n1 [AZD1775] (first compound max 1 µM, partner max 1 µM) | 0.16 | -0.0255 | 0.0117 | 0.0214 | -0.0338 | 0.0526 | -0.0461 | 0.0198 | -0.0218 | -0.0654 | 0.0945 | -0.0319 | 0.0461 | 0.0468 | 0.0162 | -0.0146 | -0.0445 | 0.0862 | -0.0766 |
| Cc1cc2ncnn2cc1Nc1ncc2c(n1)n(C1CCOCC1)c(=O)n2C [AZD7648] + CN(C)CCCOc1ccc(-c2ccc3ncc4c(c3c2)n(C2CCOCC2)c(=O)n4C)cn1 [AZD0156] (first compound max 10 µM, 7x7, partner max 1 µM) | 0.0136 | 0.0841 | -0.0264 | 0.0013 | -0.0687 | -0.0026 | -0.0055 | 0.0251 | 0.0803 | -0.0262 | 0.016 | -0.0359 | 0.0217 | 0.0314 | 0.0542 | 0.0078 | 0.0176 | 0.0154 | -0.0274 |
| C[C@@H]1COCCN1c1cc(C2([S@](C)(=N)=O)CC2)nc(-c2ccnc3[nH]ccc23)n1 [AZD6738] + O=C(c1cc(Cc2n[nH]c(=O)c3ccccc23)ccc1F)N1CCN(C(=O)C2CC2)CC1 [Olaparib] (first compound max 10 µM, 7x7, partner max 10 µM) | -0.0157 | -0.0064 | -0.0083 | 0.0598 | -0.0471 | -0.0646 | 0.0285 | -0.0128 | 0.0543 | 0.0033 | 0.0343 | 0.0021 | 0.0114 | 0.0156 | -0.0454 | 0.024 | -0.0275 | -0.0556 | 0.0023 |
